The record followed here is patent US20240239774A1, “SOLUBLE ADENYLYL CYCLASE (SAC) INHIBITORS AND USES THEREOF” (Cornell University, priority 2021, published 2024).

Structures are written as SMILES.

In this experiment the test system is mouse sperm. The experiment in a line: Acrosome reaction assay. Type of experiment: cell-based. Conditions: 5 μM Example 1 or 10 nM Example 133; capacitating media 90 minutes. Here is the method: Zonae pellucidae were isolated from female mice superovulated by intraperitoneal injection of 10 I.U. […] 3 days before the experiment. 14 hours before oocyte isolation, mice were injected with 10 I.U. […]. Oviducts were collected following cervical dislocation. Cumulus-enclosed oocytes were separated from the oviducts and placed into TYH buffer containing 300 μg/ml hyaluronidase. After 15 minutes, cumulus-free oocytes were transferred into fresh buffer and washed twice. Zonae pellucidae and oocytes were separated by shear forces generated by expulsion from […] pasteur pipettes. Zona pellucidae were counted, transferred into fresh buffer and heat-solubilized by incubation for 10 minutes at 65° C.
For analysis of acrosomal exocytosis, 100 μl of 1×10^7 sperm/ml were capacitated for 90 minutes in TYH buffer supplemented with 3 mg/ml BSA and 25 mM NaHCO3 (mouse sperm) or HTF buffer supplemented with […] HSA and 25 mM NaHCO3 (human sperm). sAC inhibitors were added with capacitating buffer; 0.1% DMSO was used as vehicle control. […] After curing, slides were analyzed using a Zeiss LSM 880 Laser Scanning Confocal Microscope; images were captured with two photomultiplier and one Gallium Arsenide Phosphide detector using ZEN Imaging software. For each condition, at least 600 cells were analyzed using ImageJ 1.52.

As for `Nc1nc(Cl)cc(-c2nn(C(F)F)cc2Cc2ccccc2OCCN2CCOC[C@H]2CO)n1` [Example 133], the “blocking acrosome reaction induced by zona pellucidae” value is recorded as “more potent than Example 1”.
